Broadly, the IC50 is the concentration at which inhibition is half-maximal.

The test system of experiment [1] is K562. Description: Cytotoxicity against human K562 cells assessed as reduction in cell viability measured after 72 hrs by MTT assay. Conditions: K562, 72 h. The experiment is classed as functional, cell-based. A general note: Tetrazolium dyes change colour on reduction, which living cells bring about.
The test system of experiment [2] is HUVEC. Description: Cytotoxicity against HUVEC assessed as reduction in cell viability measured after 72 hrs by MTT assay. The note with it: Homo sapiens. The format is cell-based.
In experiment [3] the test system is HUVEC. The experiment in a line: Cytotoxicity against HUVEC assessed as reduction in cell viability measured after 24 hrs by MTT assay. The experiment is classed as cell-based. The note with it: Homo sapiens.
Experiment [4] relates to MCF7. The experiment in a line: Cytotoxicity against human MCF7 cells assessed as reduction in cell viability measured after 24 hrs by MTT assay. The format is functional, cell-based. Conditions: MCF7, 24 h.
Experiment [5] concerns MCF7. The experiment in a line: Cytotoxicity against human MCF7 cells assessed as reduction in cell viability measured after 72 hrs by MTT assay. The format is functional, cell-based. Conditions: MCF7, 72 h.
The subject of experiment [6] is THP-1. Description: Cytotoxicity against human THP-1 cells assessed as reduction in cell viability measured after 72 hrs by MTT assay. The note with it: THP-1, 72 h. The experiment is classed as functional, cell-based.
In experiment [7] the test system is THP-1. The experiment in a line: Cytotoxicity against human THP-1 cells assessed as reduction in cell viability measured after 24 hrs by MTT assay. The format is functional, cell-based. Conditions: THP-1, 24 h.
Experiment [8] relates to K562. The experiment in a line: Cytotoxicity against human K562 cells assessed as reduction in cell viability measured after 24 hrs by MTT assay. The format is functional, cell-based. Conditions: K562, 24 h.
Experiment [9] relates to K562. Description: Induction of ROS production in human K562 cells at 100 uM incubated for 24 hrs relative to control. The format is functional.
The test system of experiment [10] is K562. The experiment in a line: Cell cycle arrest in human K562 cells assessed as accumulation at G2/M phase at 100 uM measured after 24 hrs by propidium iodide staining based flow cytometry analysis (reference value: 25.6+/- 0.7%). The experiment is classed as functional. For orientation: Flow cytometry measures light scatter and fluorescence of single cells or particles in a stream.

In experiment [11] the test system is K562. The experiment in a line: Induction of autophagy in human K562 cells at 50 uM after 24 hrs (reference value: 3.9+/- 1.1%). The format is functional.
Experiment [12] has as its system K562. Description: Cell cycle arrest in human K562 cells assessed as accumulation at G1 phase at 25 uM measured after 24 hrs by propidium iodide staining based flow cytometry analysis (reference value: 43.5+/- 0.3%). The format is functional.
The test system of experiment [13] is K562. Description: Cell cycle arrest in human K562 cells assessed as accumulation at sub G1 phase at 100 uM measured after 24 hrs by propidium iodide staining based flow cytometry analysis (reference value: 6.5+/- 0.7%). The experiment is classed as functional.
For experiment [14], the system named is K562. Description: Induction of apoptosis in human K562 cells at 100 uM after 24 hrs by PI staining based flow cytometric analysis (reference value: 0.1+/- 0.05%). The format is functional.
The subject of experiment [15] is K562. The experiment in a line: Induction of autophagy in human K562 cells at 100 uM after 24 hrs (reference value: 3.9+/- 1.1%). The experiment is classed as functional.
In experiment [16] the test system is K562. The experiment in a line: Cell cycle arrest in human K562 cells assessed as accumulation at S phase at 25 uM measured after 24 hrs by propidium iodide staining based flow cytometry analysis (reference value: 22.8+/- 0.5%). The format is functional.
The test system of experiment [17] is K562. The experiment in a line: Induction of autophagy in human K562 cells at 25 uM after 24 hrs (reference value: 3.9+/- 1.1%). The format is functional.
The test system of experiment [18] is K562. Description: Cell cycle arrest in human K562 cells assessed as accumulation at sub G1 phase at 50 uM measured after 24 hrs by propidium iodide staining based flow cytometry analysis (reference value: 6.5+/- 0.7%). The format is functional.
For experiment [19], the system named is K562. The experiment in a line: Cell cycle arrest in human K562 cells assessed as accumulation at S phase at 50 uM measured after 24 hrs by propidium iodide staining based flow cytometry analysis (reference value: 22.8+/- 0.5%). The format is functional.
Experiment [20] relates to K562. Description: Cell cycle arrest in human K562 cells assessed as accumulation at S phase at 100 uM measured after 24 hrs by propidium iodide staining based flow cytometry analysis (reference value: 22.8+/- 0.5%). The experiment is classed as functional.
In experiment [21] the test system is K562. The experiment in a line: Cell cycle arrest in human K562 cells assessed as accumulation at sub G1 phase at 25 uM measured after 24 hrs by propidium iodide staining based flow cytometry analysis (reference value: 6.5+/- 0.7%). The format is functional.
Experiment [22] concerns K562. Description: Cell cycle arrest in human K562 cells assessed as accumulation at G2/M phase at 25 uM measured after 24 hrs by propidium iodide staining based flow cytometry analysis (reference value: 25.6+/- 0.7%). The format is functional.
The test system of experiment [23] is K562. Description: Cell cycle arrest in human K562 cells assessed as accumulation at G1 phase at 50 uM measured after 24 hrs by propidium iodide staining based flow cytometry analysis (reference value: 43.5+/- 0.3%). The format is functional.
For experiment [24], the system named is K562. Description: Cell cycle arrest in human K562 cells assessed as accumulation at G1 phase at 100 uM measured after 24 hrs by propidium iodide staining based flow cytometry analysis (reference value: 43.5+/- 0.3%). The format is functional.
Experiment [25] concerns K562. Description: Induction of apoptosis in human K562 cells at 50 uM after 24 hrs by PI staining based flow cytometric analysis (reference value: 0.1+/- 0.05%). The format is functional.
For experiment [26], the system named is K562. Description: Induction of apoptosis in human K562 cells at 25 uM after 24 hrs by PI staining based flow cytometric analysis (reference value: 0.1+/- 0.05%). The format is functional.
Experiment [27] concerns K562. Description: Cell cycle arrest in human K562 cells assessed as accumulation at G2/M phase at 50 uM measured after 24 hrs by propidium iodide staining based flow cytometry analysis (reference value: 25.6+/- 0.7%). The experiment is classed as functional.

As to `Cc1ccc(/C=C2\CC[C@H]3C(C)(C)CCC[C@]3(C)[C@H]2CCC(C)CC(=O)O)cc1` (some centres not stated), the IC50 in the experiment with K562 [1] was > 200 µM; with HUVEC [2], > 200 µM; in the experiment with HUVEC [3], > 200 µM; with MCF7 [4] it was > 200 µM; with MCF7 [5], > 200 µM; in the experiment with THP-1 [6], 91 µM. Also, the IC50 in the experiment on THP-1 [7] and in the experiment with K562 [8] was > 200 µM each time.
Consider `COc1ccc(/C=C2\CC[C@H]3C(C)(C)CCC[C@]3(C)[C@H]2CCC(C)CC(=O)O)cc1OC` (some centres not stated), for which the IC50 was > 200 µM in the experiment on K562 [1]; > 200 µM with HUVEC [2]; > 200 µM in the experiment on HUVEC [3]; > 200 µM in the experiment with MCF7 [4]; > 200 µM with MCF7 [5]; 106 µM in the experiment on THP-1 [6]. Further, the half-inhibitory concentration (IC50) is 178 µM in the experiment on THP-1 [7] and > 200 µM with K562 [8].
On to `CC(CC[C@H]1/C(=C/c2ccc(Cl)cc2)CC[C@H]2C(C)(C)CCC[C@]12C)CC(=O)O` (some centres not stated), for which the IC50 in the experiment with K562 [1], in the experiment with HUVEC [2], with HUVEC [3], in the experiment with THP-1 [6], with THP-1 [7] and with K562 [8] was > 200 µM in each case.
Regarding `COc1ccc(/C=C2\CC[C@H]3C(C)(C)CCC[C@]3(C)[C@H]2CCC(C)CC(=O)O)cc1` (some centres not stated), the 50% inhibitory concentration (IC50) in the experiment on K562 [1], with HUVEC [2], with HUVEC [3], with THP-1 [6], in the experiment with THP-1 [7] and with K562 [8] was > 200 µM in each case.
Take `CC(CC[C@H]1/C(=C/c2ccc(Br)cc2)CC[C@H]2C(C)(C)CCC[C@]12C)CC(=O)O` (some centres not stated): the concentration for half-maximal inhibition (IC50) with K562 [1], with HUVEC [2], in the experiment on HUVEC [3], with THP-1 [6], in the experiment with THP-1 [7] and in the experiment with K562 [8] was > 200 µM in each case.
In the case of `CC(CC[C@H]1/C(=C/c2ccc(F)cc2)CC[C@H]2C(C)(C)CCC[C@]12C)CC(=O)O` (some centres not stated), the IC50 in the experiment on K562 [1], in the experiment with HUVEC [2], in the experiment on HUVEC [3], in the experiment with THP-1 [6], with THP-1 [7] and in the experiment with K562 [8] was > 200 µM throughout.
For the molecule `CC(CC[C@H]1/C(=C/c2ccc(I)cc2)CC[C@H]2C(C)(C)CCC[C@]12C)CC(=O)O` (some centres not stated), the Activity in the experiment on K562 [9] is on record as 17.7%; with K562 [10], 17.1%; in the experiment on K562 [11], 14.6%; in the experiment on K562 [12], 44.5%; with K562 [13], 35.8%; in the experiment on K562 [14] it was 1.1%. The Activity is reported as 25.2% in the experiment on K562 [15]; 24.4% in the experiment on K562 [16]; 7.3% in the experiment with K562 [17]; 8.5% with K562 [18]; 23.2% in the experiment on K562 [19]; 18.2% in the experiment on K562 [20]. Also, the Activity with K562 [21] is 7.2%; with K562 [22] it was 24.1%; with K562 [23] it was 43.3%; in the experiment on K562 [24], 27.5%; in the experiment on K562 [25], 0.4%; with K562 [26] it was 2.4%. The Activity with K562 [27] amounted to 21.9%. The half-inhibitory concentration (IC50) in the experiment with K562 [1] is 55 µM; in the experiment with HUVEC [2], 100 µM; in the experiment with HUVEC [3] it was 194 µM; with MCF7 [4], 89 µM; in the experiment on MCF7 [5], 50 µM; in the experiment on THP-1 [6], 33 µM. The half-inhibitory concentration (IC50) with THP-1 [7] came out at 68 µM; in the experiment with K562 [8], 98 µM.
In the case of `C=C1CC[C@H]2C(C)(C)CCC[C@]2(C)[C@H]1CCC(C)CC(=O)O` (some centres not stated), the IC50 with K562 [1] was > 200 µM; with HUVEC [2], 168 µM; in the experiment with HUVEC [3], > 200 µM; in the experiment with MCF7 [4] it was > 200 µM; in the experiment with MCF7 [5], > 200 µM; in the experiment on THP-1 [6], 132 µM. Moreover, the IC50 in the experiment with THP-1 [7] and with K562 [8] was > 200 µM throughout.
`C=C1CC[C@H]2C(C)(C)CCC[C@]2(C)[C@H]1CCC(C)CC(=O)OC` (some centres not stated): the 50% inhibitory concentration (IC50) with K562 [1], in the experiment on HUVEC [2], with HUVEC [3], in the experiment on MCF7 [4], in the experiment with MCF7 [5] and with THP-1 [6] was > 200 µM in each case. The half-inhibitory concentration (IC50) in the experiment on THP-1 [7] and with K562 [8] was > 200 µM throughout.
For the molecule `CC(CC[C@H]1/C(=C/c2ccc([N+](=O)[O-])cc2)CC[C@H]2C(C)(C)CCC[C@]12C)CC(=O)O` (some centres not stated), the concentration for half-maximal inhibition (IC50) in the experiment with K562 [1] is 169 µM; in the experiment with HUVEC [2], 194 µM; in the experiment on HUVEC [3] it was > 200 µM; in the experiment with MCF7 [4], > 200 µM; in the experiment on MCF7 [5], 124 µM; in the experiment on THP-1 [6] it was 68 µM. Moreover, the IC50 was 180 µM with THP-1 [7] and > 200 µM in the experiment with K562 [8].
`COc1cc([C@@H]2c3cc4c(cc3[C@@H](O[C@@H]3O[C@@H]5CO[C@@H](C)O[C@H]5[C@H](O)[C@H]3O)[C@H]3COC(=O)[C@H]23)OCO4)cc(OC)c1O` [ETOPOSIDE]: the Activity is listed as 30.4% in the experiment with K562 [10], 13% with K562 [13], 26% in the experiment on K562 [20] and 20.6% in the experiment with K562 [24]. Moreover, the IC50 in the experiment with K562 [1] is 66 µM; in the experiment on HUVEC [2], 29 µM; with HUVEC [3], > 200 µM; in the experiment with MCF7 [4], > 100 µM; with MCF7 [5], 50 µM; in the experiment with THP-1 [6], < 6.25 µM. Also, the IC50 in the experiment with THP-1 [7] was 59 µM; with K562 [8] it was > 200 µM.
`O=c1[nH]cc(F)c(=O)[nH]1` [FLUOROURACIL]: the IC50 in the experiment on HUVEC [2] was 96 µM; with HUVEC [3], > 200 µM; in the experiment on MCF7 [4], > 200 µM; in the experiment with MCF7 [5], 166 µM.

For the origin of these results see ChEMBL document CHEMBL5030550, “A late-stage diversification via Heck-Matsuda arylation: Straightforward synthesis and cytotoxic/antiproliferative profiling of novel aryl-labdane-type derivatives” (Bioorg Med Chem Lett, 2021).
